This is an account of results in US9840583B2, “Fluorescent polymers and applications thereof” (Board of Regents, The University of Texas System, priority 2013, dated 2017).

The data set can be described thus: Photostability under continuous UV excitation. The format is physicochemical. As to conditions: continuous UV excitation for 3 h. The protocol:
The photostability of ABPLP micelles was also investigated and compared to the organic fluorescent dye rhodamine-B. The fluorescence intensity of the ABPLP micelle solution decreased by only 1 percent of the initial intensity after continuous UV excitation for 3 h, indicating excellent photostability. In contrast, rhodamine-B lost almost 10 percent of initial fluorescence intensity within the same experimental period.

For the compound `CCN(CC)c1ccc2c(-c3ccccc3C(=O)O)c3ccc(=[N+](CC)CC)cc-3oc2c1.[Cl-]` [rhodamine-B], the “Loss of initial fluorescence intensity” value is given as around 10%.
